According to ChEMBL document CHEMBL3885881, “DrugMatrix”:

Organism: Rattus norvegicus
Experiment: DrugMatrix - Regimen: Daily Repeat
Type: toxicity, organism-based, Sprague-Dawley
Design: regimen Daily Repeat, gender Male, age 6-8 weeks
Details: in vivo, po, route oral GAVAGE, vehicle 100 % WATER; for ABSOLUTE BASOPHIL / ABSOLUTE EOSINOPHIL / ABSOLUTE LYMPHOCYTE / ABSOLUTE MONOCYTE / ABSOLUTE SEGMENTED NEUTROPHIL / BASOPHIL / EOSINOPHIL / ERYTHROCYTE COUNT / HEMATOCRIT / HEMOGLOBIN / LEUKOCYTE COUNT / LYMPHOCYTE / MEAN CORPUSCULAR HEMOGLOBIN / MEAN CORPUSCULAR HEMOGLOBIN CONCENTRATION / MEAN CORPUSCULAR VOLUME / MONOCYTE / NEUTROPHIL / NUCLEATED RED BLOOD CELLS / PLATELET COUNT: tissue Blood; for ALANINE AMINOTRANSFERASE / ALBUMIN / ALKALINE PHOSPHATASE / ASPARTATE AMINOTRANSFERASE / BLOOD UREA NITROGEN / CARBON DIOXIDE / CHLORIDE / CHOLESTEROL / CREATINE PHOSPHOKINASE / CREATININE / GLUCOSE / LACTATE DEHYDROGENASE / LIPASE / PHOSPHORUS / POTASSIUM / SODIUM / TOTAL BILIRUBIN / TOTAL PROTEIN / URIC ACID: tissue Plasma
[1] = 0 mg/kg, 72 h, dose level Control, time 3 day
[2] = 0 mg/kg, 120 h, dose level Control, time 5 day
[3] = 120 mg/kg, 72 h, dose level Low, time 3 day

Nc1ccc(S(=O)(=O)Nc2ccnn2-c2ccccc2)cc1 [SULFAPHENAZOLE]
ABSOLUTE BASOPHIL [1]: 0 CELLS/uL
ABSOLUTE EOSINOPHIL [1]: 20.17 CELLS/uL
ABSOLUTE LYMPHOCYTE [1]: 12371.67 CELLS/uL
ABSOLUTE MONOCYTE [1]: 166 CELLS/uL
ABSOLUTE SEGMENTED NEUTROPHIL [1]: 1292.17 CELLS/uL
BASOPHIL [1]: 0%
EOSINOPHIL [1]: 0.17%
ERYTHROCYTE COUNT [1]: 5.46 x10E6/uL
HEMATOCRIT [1]: 34.38%
HEMOGLOBIN [1]: 13.32 G/DL
LEUKOCYTE COUNT [1]: 13.85 x10E3/uL
LYMPHOCYTE [1]: 88.5%
MEAN CORPUSCULAR HEMOGLOBIN [1]: 24.42 pg
MEAN CORPUSCULAR HEMOGLOBIN CONCENTRATION [1]: 38.7 G/DL
MEAN CORPUSCULAR VOLUME [1]: 63.07 fL
MONOCYTE [1]: 1.17%
NEUTROPHIL [1]: 10.17%
NUCLEATED RED BLOOD CELLS [1]: 0.17 /100WBC
PLATELET COUNT [1]: 1193.5 x10E3/uL
ALANINE AMINOTRANSFERASE [1]: 54.5 u/L
ALBUMIN [1]: 4.02 G/DL
ALKALINE PHOSPHATASE [1]: 346.5 u/L
ASPARTATE AMINOTRANSFERASE [1]: 103.17 u/L
BLOOD UREA NITROGEN [1]: 16.5 mg/dL
CARBON DIOXIDE [1]: 29.83 mmol/L
CHLORIDE [1]: 99.5 MEQ/L
CHOLESTEROL [1]: 72.5 mg/dL
CREATINE PHOSPHOKINASE [1]: 532.5 u/L
CREATININE [1]: 0.18 mg/dL
GLUCOSE [1]: 168.5 mg/dL
LACTATE DEHYDROGENASE [1]: 536.5 u/L
LIPASE [1]: 11.17 u/L
PHOSPHORUS [1]: 11.48 mg/dL
POTASSIUM [1]: 5.95 MEQ/L
SODIUM [1]: 140.5 MEQ/L
TOTAL BILIRUBIN [1]: 0.18 mg/dL
TOTAL PROTEIN [1]: 5.77 G/DL
URIC ACID [1]: 1.42 mg/dL
ABSOLUTE BASOPHIL [2]: 0 CELLS/uL
ABSOLUTE EOSINOPHIL [2]: 22.83 CELLS/uL
ABSOLUTE LYMPHOCYTE [2]: 12202.83 CELLS/uL
ABSOLUTE MONOCYTE [2]: 158 CELLS/uL
ABSOLUTE SEGMENTED NEUTROPHIL [2]: 1283 CELLS/uL
BASOPHIL [2]: 0%
EOSINOPHIL [2]: 0.17%
ERYTHROCYTE COUNT [2]: 5.88 x10E6/uL
HEMATOCRIT [2]: 36.62%
HEMOGLOBIN [2]: 14.07 G/DL
LEUKOCYTE COUNT [2]: 13.67 x10E3/uL
LYMPHOCYTE [2]: 89.5%
MEAN CORPUSCULAR HEMOGLOBIN [2]: 23.95 pg
MEAN CORPUSCULAR HEMOGLOBIN CONCENTRATION [2]: 38.43 G/DL
MEAN CORPUSCULAR VOLUME [2]: 62.28 fL
MONOCYTE [2]: 1.17%
NEUTROPHIL [2]: 9.17%
NUCLEATED RED BLOOD CELLS [2]: 0.17 /100WBC
PLATELET COUNT [2]: 1198 x10E3/uL
ALANINE AMINOTRANSFERASE [2]: 51 u/L
ALBUMIN [2]: 4.3 G/DL
ALKALINE PHOSPHATASE [2]: 343 u/L
ASPARTATE AMINOTRANSFERASE [2]: 89.83 u/L
BLOOD UREA NITROGEN [2]: 17.67 mg/dL
CARBON DIOXIDE [2]: 27.17 mmol/L
CHLORIDE [2]: 98.33 MEQ/L
CHOLESTEROL [2]: 82.5 mg/dL
CREATINE PHOSPHOKINASE [2]: 533.33 u/L
CREATININE [2]: 0.18 mg/dL
GLUCOSE [2]: 152.67 mg/dL
LACTATE DEHYDROGENASE [2]: 220.33 u/L
LIPASE [2]: 11.5 u/L
PHOSPHORUS [2]: 11.25 mg/dL
POTASSIUM [2]: 6.29 MEQ/L
SODIUM [2]: 140.53 MEQ/L
TOTAL BILIRUBIN [2]: 0.22 mg/dL
TOTAL PROTEIN [2]: 6.12 G/DL
URIC ACID [2]: 1.42 mg/dL
ABSOLUTE BASOPHIL [3]: 0 CELLS/uL
ABSOLUTE EOSINOPHIL [3]: 0 CELLS/uL
ABSOLUTE LYMPHOCYTE [3]: 13809.67 CELLS/uL
ABSOLUTE MONOCYTE [3]: 111 CELLS/uL
ABSOLUTE SEGMENTED NEUTROPHIL [3]: 1579.33 CELLS/uL
BASOPHIL [3]: 0%
EOSINOPHIL [3]: 0%
ERYTHROCYTE COUNT [3]: 5.26 x10E6/uL
HEMATOCRIT [3]: 32.3%
HEMOGLOBIN [3]: 13 G/DL
LEUKOCYTE COUNT [3]: 15.5 x10E3/uL
LYMPHOCYTE [3]: 88.67%
MEAN CORPUSCULAR HEMOGLOBIN [3]: 24.77 pg
MEAN CORPUSCULAR HEMOGLOBIN CONCENTRATION [3]: 40.33 G/DL
MEAN CORPUSCULAR VOLUME [3]: 61.43 fL
MONOCYTE [3]: 0.67%
NEUTROPHIL [3]: 10.67%
NUCLEATED RED BLOOD CELLS [3]: 0 /100WBC
PLATELET COUNT [3]: 1150 x10E3/uL
ALANINE AMINOTRANSFERASE [3]: 66 u/L
ALBUMIN [3]: 3.9 G/DL
ALKALINE PHOSPHATASE [3]: 348.67 u/L
ASPARTATE AMINOTRANSFERASE [3]: 94.33 u/L
BLOOD UREA NITROGEN [3]: 14 mg/dL
CARBON DIOXIDE [3]: 29.33 mmol/L
CHLORIDE [3]: 97.67 MEQ/L
CHOLESTEROL [3]: 74.67 mg/dL
CREATINE PHOSPHOKINASE [3]: 287.67 u/L
CREATININE [3]: 0.15 mg/dL
GLUCOSE [3]: 149.33 mg/dL
LACTATE DEHYDROGENASE [3]: 195.67 u/L
LIPASE [3]: 10 u/L
PHOSPHORUS [3]: 11.53 mg/dL
POTASSIUM [3]: 6.01 MEQ/L
SODIUM [3]: 140.83 MEQ/L
TOTAL BILIRUBIN [3]: 0.17 mg/dL
TOTAL PROTEIN [3]: 5.63 G/DL
URIC ACID [3]: 1.33 mg/dL
